Data taken from ChEMBL document CHEMBL3400015, “Tertiary amides of Salinomycin: A new group of antibacterial agents against Bacillus anthracis and methicillin-resistant Staphylococcus epidermidis” (Bioorg Med Chem Lett, 2015).

Tests used:
Staphylococcus aureus [1] = test: Antimicrobial activity against Staphylococcus aureus ATCC 25923 after 18 hrs by twofold serial broth dilution method; type: functional; settings: ATCC 25923, 18 h
Staphylococcus aureus [2] = test: Antimicrobial activity against Staphylococcus aureus […] after 18 hrs by twofold serial broth dilution method; type: functional
[3] = system: Staphylococcus epidermidis; test: Antimicrobial activity against Staphylococcus epidermidis ATCC 35984 after 18 hrs by twofold serial broth dilution method; type: functional; settings: ATCC 35984, 18 h
Escherichia coli [4] = test: Antimicrobial activity against Escherichia coli ATCC 10538 after 18 hrs by twofold serial broth dilution method; type: functional; settings: ATCC 10538, 18 h
Escherichia coli [5] = test: Antimicrobial activity against Escherichia coli ATCC 25922 after 18 hrs by twofold serial broth dilution method; type: functional; settings: ATCC 25922, 18 h
Escherichia coli [6] = test: Antimicrobial activity against Escherichia coli NCTC 8196 after 18 hrs by twofold serial broth dilution method; type: functional; settings: NCTC 8196, 18 h
Pseudomonas aeruginosa [7] = test: Antimicrobial activity against Pseudomonas aeruginosa ATCC 15442 after 18 hrs by twofold serial broth dilution method; type: functional; settings: ATCC 15442, 18 h
Pseudomonas aeruginosa [8] = test: Antimicrobial activity against Pseudomonas aeruginosa NCTC 6749 after 18 hrs by twofold serial broth dilution method; type: functional; settings: NCTC 6749, 18 h
Pseudomonas aeruginosa [9] = test: Antimicrobial activity against Pseudomonas aeruginosa ATCC 27853 after 18 hrs by twofold serial broth dilution method; type: functional; settings: ATCC 27853, 18 h
Bacillus anthracis = test: Antimicrobial activity against Bacillus anthracis 34F2 after 18 hrs by twofold serial broth dilution method; type: functional; settings: 34F2, 18 h
Staphylococcus aureus [10] = test: Bactericidal activity against Staphylococcus aureus NCTC 4163 after 24 hrs; type: functional; settings: NCTC 4163, 24 h, read-out: MBC99.9
Staphylococcus aureus [11] = test: Bactericidal activity against Staphylococcus aureus ATCC 6538 after 24 hrs; type: functional; settings: ATCC 6538, 24 h, read-out: MBC99.9
Staphylococcus aureus [12] = test: Bactericidal activity against Staphylococcus aureus […] after 24 hrs; type: functional; settings: read-out: MBC99.9
[13] = system: Staphylococcus epidermidis; test: Bactericidal activity against Staphylococcus epidermidis ATCC 12228 after 24 hrs; type: functional; settings: ATCC 12228, 24 h, read-out: MBC99.9
[14] = system: Staphylococcus epidermidis; test: Bactericidal activity against Staphylococcus epidermidis ATCC 35984 after 24 hrs; type: functional; settings: ATCC 35984, 24 h, read-out: MBC99.9
Escherichia coli [15] = test: Bactericidal activity against Escherichia coli ATCC 10538 after 24 hrs; type: functional; settings: ATCC 10538, 24 h, read-out: MBC99.9
Escherichia coli [16] = test: Bactericidal activity against Escherichia coli ATCC 25922 after 24 hrs; type: functional; settings: ATCC 25922, 24 h, read-out: MBC99.9
Escherichia coli [17] = test: Bactericidal activity against Escherichia coli NCTC 8196 after 24 hrs; type: functional; settings: NCTC 8196, 24 h, read-out: MBC99.9
Pseudomonas aeruginosa [18] = test: Bactericidal activity against Pseudomonas aeruginosa ATCC 15442 after 24 hrs; type: functional; settings: ATCC 15442, 24 h, read-out: MBC99.9
Pseudomonas aeruginosa [19] = test: Bactericidal activity against Pseudomonas aeruginosa NCTC 6749 after 24 hrs; type: functional; settings: NCTC 6749, 24 h, read-out: MBC99.9
Pseudomonas aeruginosa [20] = test: Bactericidal activity against Pseudomonas aeruginosa ATCC 27853 after 24 hrs; type: functional; settings: ATCC 27853, 24 h, read-out: MBC99.9
[21] = system: Staphylococcus epidermidis; test: Antimicrobial activity against methicillin-resistant Staphylococcus epidermidis isolate 403/10 after 18 hrs by twofold serial broth dilution method; type: functional; settings: isolate 403/10, 18 h
[22] = system: Staphylococcus epidermidis; test: Antimicrobial activity against methicillin-resistant Staphylococcus epidermidis isolate 407/10 after 18 hrs by twofold serial broth dilution method; type: functional; settings: isolate 407/10, 18 h
[23] = system: Staphylococcus epidermidis; test: Antimicrobial activity against methicillin-resistant Staphylococcus epidermidis isolate 422/10 after 18 hrs by twofold serial broth dilution method; type: functional; settings: isolate 422/10, 18 h
[24] = system: Staphylococcus epidermidis; test: Antimicrobial activity against methicillin-resistant Staphylococcus epidermidis isolate 424/10 after 18 hrs by twofold serial broth dilution method; type: functional; settings: isolate 424/10, 18 h
[25] = system: Staphylococcus epidermidis; test: Antimicrobial activity against methicillin-resistant Staphylococcus epidermidis isolate 454/11 after 18 hrs by twofold serial broth dilution method; type: functional; settings: isolate 454/11, 18 h
[26] = system: Staphylococcus epidermidis; test: Antimicrobial activity against methicillin-resistant Staphylococcus epidermidis isolate 455/11 after 18 hrs by twofold serial broth dilution method; type: functional; settings: isolate 455/11, 18 h
[27] = system: Staphylococcus epidermidis; test: Antimicrobial activity against methicillin-resistant Staphylococcus epidermidis isolate 457/11 after 18 hrs by twofold serial broth dilution method; type: functional; settings: isolate 457/11, 18 h
[28] = system: Staphylococcus epidermidis; test: Antimicrobial activity against methicillin-resistant Staphylococcus epidermidis isolate 458/11 after 18 hrs by twofold serial broth dilution method; type: functional; settings: isolate 458/11, 18 h
[29] = system: Staphylococcus epidermidis; test: Antimicrobial activity against methicillin-resistant Staphylococcus epidermidis isolate 459/11 after 18 hrs by twofold serial broth dilution method; type: functional; settings: isolate 459/11, 18 h
[30] = system: Staphylococcus epidermidis; test: Antimicrobial activity against methicillin-resistant Staphylococcus epidermidis isolate 460/11 after 18 hrs by twofold serial broth dilution method; type: functional; settings: isolate 460/11, 18 h
[31] = system: Staphylococcus epidermidis; test: Antimicrobial activity against methicillin-resistant Staphylococcus epidermidis isolate 469/11 after 18 hrs by twofold serial broth dilution method; type: functional; settings: isolate 469/11, 18 h
[32] = system: Staphylococcus epidermidis; test: Antimicrobial activity against methicillin-resistant Staphylococcus epidermidis isolate 470/11 after 18 hrs by twofold serial broth dilution method; type: functional; settings: isolate 470/11, 18 h
[33] = system: Staphylococcus epidermidis; test: Bactericidal activity against methicillin-resistant Staphylococcus epidermidis isolate 403/10 after 24 hrs; type: functional; settings: isolate 403/10, 24 h, read-out: MBC99.9
[34] = system: Staphylococcus epidermidis; test: Bactericidal activity against methicillin-resistant Staphylococcus epidermidis isolate 404/10 after 24 hrs; type: functional; settings: isolate 404/10, 24 h, read-out: MBC99.9
[35] = system: Staphylococcus epidermidis; test: Bactericidal activity against methicillin-resistant Staphylococcus epidermidis isolate 407/10 after 24 hrs; type: functional; settings: isolate 407/10, 24 h, read-out: MBC99.9
[36] = system: Staphylococcus epidermidis; test: Bactericidal activity against methicillin-resistant Staphylococcus epidermidis isolate 424/10 after 24 hrs; type: functional; settings: isolate 424/10, 24 h, read-out: MBC99.9
[37] = system: Staphylococcus epidermidis; test: Bactericidal activity against methicillin-resistant Staphylococcus epidermidis isolate 455/11 after 24 hrs; type: functional; settings: isolate 455/11, 24 h, read-out: MBC99.9
[38] = system: Staphylococcus epidermidis; test: Bactericidal activity against methicillin-resistant Staphylococcus epidermidis isolate 458/11 after 24 hrs; type: functional; settings: isolate 458/11, 24 h, read-out: MBC99.9
[39] = system: Staphylococcus epidermidis; test: Bactericidal activity against methicillin-resistant Staphylococcus epidermidis isolate 459/11 after 24 hrs; type: functional; settings: isolate 459/11, 24 h, read-out: MBC99.9
[40] = system: Staphylococcus epidermidis; test: Bactericidal activity against methicillin-resistant Staphylococcus epidermidis isolate 460/11 after 24 hrs; type: functional; settings: isolate 460/11, 24 h, read-out: MBC99.9
[41] = system: Staphylococcus epidermidis; test: Bactericidal activity against methicillin-resistant Staphylococcus epidermidis isolate 461/11 after 24 hrs; type: functional; settings: isolate 461/11, 24 h, read-out: MBC99.9
Bacillus subtilis [42] = test: Genotoxicity in rec-positive Bacillus subtilis H17 at 2 ug/9 mm disc after 24 hrs by disc diffusion method; type: toxicity, organism-based
Bacillus subtilis [43] = test: Genotoxicity in rec-negative Bacillus subtilis M45 at 2 ug/9 mm disc after 24 hrs by disc diffusion method; type: toxicity, organism-based

CC[C@@H](C(=O)[C@@H](C)[C@@H](O)[C@H](C)[C@@H]1O[C@@H]([C@@H](CC)C(=O)N(CCOC)CCOC)CC[C@@H]1C)[C@H]1O[C@]2(C=C[C@@H](O)[C@]3(CC[C@@](C)([C@H]4CC[C@](O)(CC)[C@H](C)O4)O3)O2)[C@H](C)C[C@@H]1C
> 256 µg/mL: MIC (Escherichia coli [4]) | MIC (Escherichia coli [5]) | MIC (Escherichia coli [6]) | MIC (Pseudomonas aeruginosa [7]) | MIC (Pseudomonas aeruginosa [8]) | MIC (Pseudomonas aeruginosa [9]) | MBC (Staphylococcus aureus [10]) | MBC (Staphylococcus aureus [11]) | MBC (Staphylococcus aureus [12]) | MBC [13] | MBC [14] | MBC (Escherichia coli [15]) | MBC (Escherichia coli [16]) | MBC (Escherichia coli [17]) | MBC (Pseudomonas aeruginosa [18]) | MBC (Pseudomonas aeruginosa [19]) | MBC (Pseudomonas aeruginosa [20]) | MBC [33] | MBC [34] | MBC [35] | MBC [36] | MBC [37] | MBC [38] | MBC [39] | MBC [40] | MBC [41]
256 µg/mL: MIC [24] | MIC [32]
512 µg/mL: MIC (Bacillus anthracis)
64 µg/mL: MIC (Staphylococcus aureus [1]) | MIC [21] | MIC [25] | MIC [28]
128 µg/mL: MIC (Staphylococcus aureus [2]) | MIC [3] | MIC [22] | MIC [23] | MIC [26] | MIC [27] | MIC [29] | MIC [30] | MIC [31]
14 mm: diameter of the inhibition zone (DIZ) (Bacillus subtilis [43])
13 mm: diameter of the inhibition zone (DIZ) (Bacillus subtilis [42])
